The source of these data is US20250177324A1, “A[…], AND PREPARATION METHOD THEREFOR AND USE THEREOF” (SHANGHAI ZHIGEN PHARMACEUTICAL & TECHNOLOGY CO. LTD., priority 2022, published 2025).

Where a name gives a salt, the structure may show the parent alone. Read-outs that look alike come from different tables or passages of the source.

The nature of data set [1]: Solid-state chemical stability under different storage conditions (liquid chromatography). Particulars: for Stability of solid state compound, 0 Days (%): liquid chromatography. The data set is classed as physicochemical. How it is done: The HPLC conditions were as follows:
Configuration of test solution: appropriate amount of sample was dissolved and diluted with a diluent (0.03 mol/L phosphate buffer-acetonitrile (80:20)) to make 1 mg/mL solution.
Chromatographic conditions: according to the high performance liquid chromatography (Chinese Pharmacopoeia 2020 version of the four general 0512) test, using octadecyl-bonded silica gel (Agilent Eclipse Plus C18, 4.6 mm*250 mm, 5.0 μm, P/N for 959990-902 or a chromatographic column with equivalent performance) as a filler; 0.03 mol/L phosphate buffer (4.08 g of potassium dihydrogen phosphate was dissolved in 1000 ml of water and shaken well) was used as mobile phase A and acetonitrile as mobile phase B at a flow rate of 1 ml/min, the column temperature was 30° C., the detection wavelength was 220 nm, the injection volume was 10 ul, and the sample plate was controlled to 8° C. and running for 65 min. Gradient elution was performed according to the following table: […]
Configuration of test solution: appropriate amount of the product was dissolved and diluted with a diluent (0.1% phosphoric acid-acetonitrile (80:20)) to make 1 mg/mL solution.
Chromatographic conditions: according to the high performance liquid chromatography (Chinese Pharmacopoeia 2020 version of the four general 0512) test, using octadecyl bonded silica gel (Agilent Eclipse Plus C18, 4.6 mm*250 mm, 5.0 μm, P/N 959990-902 or a chromatographic column with equivalent performance) as a filler; 0.1% phosphate buffer (1 ml of phosphoric acid in 1000 ml of water and shake well) as mobile phase A, acetonitrile as mobile phase B, flow rate of 1 ml/min, column temperature of 30° C., detection wavelength of 220 nm, injection volume of 10 ul, running for 48 minutes. Gradient elution was performed according to the following table: […]

Data set [2] relates to C57 mice. Briefly: Forced swim test of oral administration in mice (antidepressant activity). The data set is classed as in vivo. Particulars: for inhibition in vivo at 20 mg/kg: Mus musculus, po, reduction of immobility time vs blank group, single gavage 20 mg/kg. How it is done:
To investigate the effects of different compounds on depression-like behavior in C57 mice by single oral administration of 20 mg/kg for 1 h and 24 h followed by forced swimming experiment, respectively.
The experimental animals were 6-week-old C57 mice, male, C57 breed mice purchased from Shanghai Slaughter Laboratory Animal Co. Ltd, weighing 20.45±0.19 g. The animals arrived at the Animal Breeding Center of the Shanghai Institute of Pharmaceutical Sciences, Chinese Academy of Sciences (Animal Production License: SCXK9[Shanghai]2004-0002, Use License: SYXK [Shanghai]2003-0029) before the experiments and were acclimated to the animal facilities for more than 3 days, 6 animals/cage were feed. The feeding environment was room temperature 23±0.2° C. and 12/12 h day/night alternating light and dark. Prior to behavioral testing, animals were moved to the behavioral testing room 2 hours in advance to acclimatize them to the environment and reduce their nervousness.
Preparation of the test material: the test compounds were weighed and dissolved in 0.9% NaCl solution, mixed well, and prepared into 1 mg/ml and 2 mg/ml solution for use, respectively.
24 h prior to drug administration, mice were placed in a cylindrical tank to acclimatize to the water environment for 10 min. On the day of the behavioral test, the animals were administered the drug once, by gavage/intraperitoneal injection at 1 h and 24 h prior to the behavioral test, respectively (as shown in Table 1).
The antidepressant effect of the compounds was evaluated by their ability to cause a reduction in the immobility time of the animals in the forced swim test compared to the blank group.

Setting [3] is: test 1 h after dosing, read-out: 1 h inhibition (%).
[4] abbreviates: test 24 h after dosing, read-out: 24 h inhibition (%).

Take `Cl.N[C@@]1(c2ccc(C(F)(F)F)cc2)CCC[C@@H](O)C1=O` [Comparative compound 1, reference compound]: in data set [1] (40° C., 75% RH), the “Stability of solid state compound, 0 Days (%)” value is on record as 99.98%; the “Stability of solid state compound, 5 Days (%)” value (“Stability … 5 Days (%)” below) was 98.94%; the “Stability of solid state compound, 10 Days (%)” value (“Stability … 10 Days (%)” below) stood at 98.74%; the “Stability of solid state compound, 30 Days (%)” value (“Stability … 30 Days (%)” for short) stood at 95.88%. In addition, the “Stability of solid state compound, 60 Days (%)” value (from here on “Stability … 60 Days (%)”) in data set [1] (40° C., 75% RH) was 91.57%. Further, the inhibition in vivo at 20 mg/kg in data set [2] (setting [3]) came to 30.6 ± 3.1%. In addition, in data set [2] (setting [4]), the inhibition in vivo at 20 mg/kg amounted to 35 ± 0.3%.
Consider `C[C@@H]1CC[C@@](N)(c2ccccc2Cl)C(=O)[C@@H]1O` [Comparative compound 3, reference compound], for which the inhibition in vivo at 20 mg/kg amounted to 22.6 ± 2.7% in data set [2] (setting [3]) and 23.7 ± 3.2% in data set [2] (setting [4]).
In the case of `CC1(C)CC[C@@](N)(c2ccccc2Cl)C(=O)[C@@H]1O` [Comparative compound 4, reference compound], the inhibition in vivo at 20 mg/kg was 2.9 ± 1% in data set [2] (setting [3]) and -17.2 ± 2% in data set [2] (setting [4]).
For `N[C@@]1(c2ccccc2Cl)CC2(CC2)C[C@@H](O)C1=O` [Comparative compound 5, reference compound], the results for the inhibition in vivo at 20 mg/kg in data set [2] (setting [3]) and in data set [2] (setting [4]) were 22.8 ± 2.5% and 19.1 ± 2.1%, respectively.
Turning to `CC1(C)C[C@@H](O)C(=O)[C@](N)(c2ccccc2Cl)C1` [Comparative compound 6, reference compound], the inhibition in vivo at 20 mg/kg was 18.2 ± 1.6% in data set [2] (setting [3]) and 11.3 ± 2% in data set [2] (setting [4]).
With `C[C@@]1(O)CCC[C@@](N)(c2ccc(C(F)(F)F)cc2)C1=O.Cl` [Compound 52, (2R, 6R)-2-amino-6-hydroxy-6-methyl-2-(4-(trifluoromethyl)phenyl)cyclohexan-1-one hydrochloride], in data set [1] (40° C., 75% RH), the “Stability of solid state compound, 0 Days (%)” value is on record as 99.89%; the “Stability … 10 Days (%)” value turned out to be 99.89%; the “Stability … 30 Days (%)” value came out at 99.90%; the “Stability … 60 Days (%)” value was 99.88%. In addition, the “Stability of solid state compound, 180 Days (%)” value in data set [1] (40° C., 75% RH, 180 days) worked out at 99.82%. Besides, the inhibition in vivo at 20 mg/kg in data set [2] (setting [3]) was determined as 29.5 ± 1.1%. Moreover, the inhibition in vivo at 20 mg/kg in data set [2] (setting [4]) came to 25.6 ± 2.1%.
Regarding `C[C@]1(O)CCC[C@@](N)(c2ccc(C(F)(F)F)cc2)C1=O.Cl` [Compound 54, (2R, 6S)-2-amino-6-hydroxy-6-methyl-2-(4-(trifluoromethyl)phenyl)cyclohexan-1-one hydrochloride], in data set [1] (40° C., 75% RH), the “Stability of solid state compound, 0 Days (%)” value is 99.27%; the “Stability … 10 Days (%)” value was determined as 99.23%; the “Stability … 60 Days (%)” value turned out to be 99.20%. The inhibition in vivo at 20 mg/kg in data set [2] (setting [3]) is 33 ± 2.5%. The inhibition in vivo at 20 mg/kg in data set [2] (setting [4]) was determined as 38.7 ± 3.3%.
For the compound `CN[C@@]1(c2cccc(OC(F)(F)F)c2F)CCC[C@](C)(O)C1=O` [Compound 57, (2R,6S)-2-(2-fluoro-3-(trifluoromethoxy)phenyl)-6-hydroxy-6-methyl-2-(methylamino)cyclohexan-1-one hydrochloride], the inhibition in vivo at 20 mg/kg in data set [2] (setting [3]) was determined as 42.2 ± 1.8%; in data set [2] (setting [4]) it was 36.5 ± 3%.
For the compound `CNC1(c2cccc(F)c2F)CCCC(C)(O)C1=O.Cl` (centres unmarked) [Compound 65, 2-(2,3-difluorophenyl)-6-hydroxy-6-methyl-2-methylaminocyclohexan-1-one hydrochloride], in data set [1] (40° C., 75% RH), the “Stability of solid state compound, 0 Days (%)” value is 99.54%; the “Stability … 5 Days (%)” value is given as 99.37%; the “Stability … 10 Days (%)” value was 99.32%; the “Stability … 30 Days (%)” value was 99.22%. The inhibition in vivo at 20 mg/kg in data set [2] (setting [3]) worked out at 26.4 ± 1.1%. In addition, the inhibition in vivo at 20 mg/kg in data set [2] (setting [4]) worked out at 37.9 ± 2.3%.
In the case of `CN[C@@]1(c2cccc(OC(F)(F)F)c2)CCC[C@](C)(O)C1=O.Cl` [Compound 68, (2S,6R)-2-hydroxy-2-methyl-6-methylamino-6-(3-(trifluoromethoxy)phenyl)cyclohexan-1-one hydrochloride], in data set [1] (40° C., 75% RH), the “Stability of solid state compound, 0 Days (%)” value is 99.12%; the “Stability … 5 Days (%)” value came to 99.11%; the “Stability … 10 Days (%)” value is on record as 99.12%. In addition, the inhibition in vivo at 20 mg/kg in data set [2] (setting [3]) was found to be 26.2 ± 4.1%. Besides, the inhibition in vivo at 20 mg/kg in data set [2] (setting [4]) amounted to 37.4 ± 0.7%.
Take `CN[C@@]1(c2ccc(C(F)(F)F)cc2)CCC[C@@](C)(O)C1=O.Cl` [Compound 71, (2R,6R)-2-hydroxy-2-methyl-6-methylamino-6-(4-(trifluoromethyl)phenyl)cyclohexan-1-one hydrochloride]: in data set [1] (40° C., 75% RH), the “Stability of solid state compound, 0 Days (%)” value was determined as 99.67%; the “Stability … 5 Days (%)” value came out at 99.46%; the “Stability … 10 Days (%)” value was 99.46%; the “Stability … 30 Days (%)” value was 99.45%. In addition, in data set [2] (setting [3]), the inhibition in vivo at 20 mg/kg is 42.4 ± 0.4%. Also, in data set [2] (setting [4]), the inhibition in vivo at 20 mg/kg came to 40.2 ± 1.6%.
As to `Cl.[2H]C([2H])([2H])N[C@@]1(c2ccc(C(F)(F)F)cc2)CCC[C@](C)(O)C1=O` [Compound 76, (2S,6R)-2-hydroxy-2-methyl-6-trideutero-methylamino-6-(4-(trifluoromethyl)phenyl)cyclohexan-1-one hydrochloride], in data set [1] (40° C., 75% RH), the “Stability of solid state compound, 0 Days (%)” value is 99.88%; the “Stability … 10 Days (%)” value turned out to be 99.65%; the “Stability … 30 Days (%)” value is on record as 99.84%. For the same compound, the inhibition in vivo at 20 mg/kg in data set [2] (setting [3]) is 65.2 ± 0.8%. Moreover, in data set [2] (setting [4]), the inhibition in vivo at 20 mg/kg stood at 47.1 ± 3.2%.
`CCN[C@@]1(c2ccc(C(F)(F)F)cc2)CCC[C@](C)(O)C1=O.Cl` [Compound 77, (2R,6S)-2-ethylamino-6-hydroxy-6-methyl-2-(4-(trifluoromethyl)phenyl)cyclohexan-1-one hydrochloride]: in data set [1] (25° C., 60% RH), the “Stability of solid state compound, 0 Days (%)” value turned out to be 99.70%; the “Stability … 10 Days (%)” value is listed as 99.69%; the “Stability … 30 Days (%)” value turned out to be 99.70%. The inhibition in vivo at 20 mg/kg in data set [2] (setting [3]) was found to be 69.8 ± 1.6%. In data set [2] (setting [4]), the inhibition in vivo at 20 mg/kg was found to be 44.3 ± 3.5%.
Regarding `CNCCC(Oc1ccc(C(F)(F)F)cc1)c1ccccc1` (centres unmarked) [Fluoxetine, reference compound], the inhibition in vivo at 20 mg/kg in data set [2] (setting [3]) amounted to 2.4 ± 1.1%; in data set [2] (setting [4]) it was 2.3 ± 3.1%. In data set [2] (oral administration, 1 h and 24 h), the “antidepressant effect in the forced swim test (in words)” value is recorded as “did not show antidepressant effect”.
